# In paper PMC9785542, “Discovery of 1-Benzhydryl-Piperazine-Based HDAC Inhibitors with Anti-Breast Cancer Activity: Synthesis, Molecular Modeling, In Vitro and In Vivo Biological Evaluation” (Pharmaceutics, 2022):
# Test system: intersegmental blood vessels (ISVs) of Tg(fli1:EGFP) zebrafish embryos
# Experiment: Anti-angiogenic activity in Tg(fli1:EGFP) zebrafish embryos
# Assay type: in vivo
# Description: The inhibitory activity of 8b on angiogenesis was examined using embryos of the transgenic zebrafish Tg(fli1:EGFP) line with GFP-labeled endothelial cells, as previously described. Briefly, embryos at the 6–8 hpf stage were exposed to three non-toxic concentrations and incubated at 28 °C by 48 hpf. At 48 hpf, the treated embryos were anesthetized with 0.02% tricaine, imaged under a fluorescence microscope (Olympus BX51, Applied Imaging Corp., San Jose, CA, USA), and analyzed for the development of intersegmental blood vessels (ISVs). The experiment was performed three times using ten embryos per concentration. ISV lengths were measured using ImageJ program, and expressed as mean value with standard deviation. Inhibitory effect of the applied treatment was determined in relation to the control (DMSO-treated) group, arbitrarily set to 100%.
smiles,measurement,setting,value
"O=C(CCCCCCCN1CCN(C(c2ccccc2)c2ccccc2)CC1)NO [Compound 8b, 8-(4-(diphenylmethyl)-piperazin-1-yl)-N-hydroxyoctanamide]",embryos affected in terms of ISV growth (anti-angiogenic phenotype),"6.25 µM, 48 hpf",~ 60%
same,toxic response in embryos at anti-angiogenic effective doses,"8b 6.25-50 µM, Suten effective dose 1.56 µM",did not elicit any toxic response
same,ISV inhibition,"25 and 50 µM, 48 hpf",majority of ISVs were inhibited
